Measured values as given in patent US9334256B2, “Agents and methods for treating ischemic and other diseases” (NoNO INC., priority 2011, dated 2016).

Columns and labels:
TRPM7 [1] = biological target: T1, TRPM7 (Mus musculus, UniProt Q923J1); assay: PI uptake cell death assay in TRPM7-expressing HEK-293 cells (type of assay from Example 1); type: cell-based, murine
T1 construct: expressed in transfected cells; host or cells: HEK-293 tSA (HEK-293T) cells, transient transfection with Lipofectamine 2000
T1 sequence (Q923J1 whole entry): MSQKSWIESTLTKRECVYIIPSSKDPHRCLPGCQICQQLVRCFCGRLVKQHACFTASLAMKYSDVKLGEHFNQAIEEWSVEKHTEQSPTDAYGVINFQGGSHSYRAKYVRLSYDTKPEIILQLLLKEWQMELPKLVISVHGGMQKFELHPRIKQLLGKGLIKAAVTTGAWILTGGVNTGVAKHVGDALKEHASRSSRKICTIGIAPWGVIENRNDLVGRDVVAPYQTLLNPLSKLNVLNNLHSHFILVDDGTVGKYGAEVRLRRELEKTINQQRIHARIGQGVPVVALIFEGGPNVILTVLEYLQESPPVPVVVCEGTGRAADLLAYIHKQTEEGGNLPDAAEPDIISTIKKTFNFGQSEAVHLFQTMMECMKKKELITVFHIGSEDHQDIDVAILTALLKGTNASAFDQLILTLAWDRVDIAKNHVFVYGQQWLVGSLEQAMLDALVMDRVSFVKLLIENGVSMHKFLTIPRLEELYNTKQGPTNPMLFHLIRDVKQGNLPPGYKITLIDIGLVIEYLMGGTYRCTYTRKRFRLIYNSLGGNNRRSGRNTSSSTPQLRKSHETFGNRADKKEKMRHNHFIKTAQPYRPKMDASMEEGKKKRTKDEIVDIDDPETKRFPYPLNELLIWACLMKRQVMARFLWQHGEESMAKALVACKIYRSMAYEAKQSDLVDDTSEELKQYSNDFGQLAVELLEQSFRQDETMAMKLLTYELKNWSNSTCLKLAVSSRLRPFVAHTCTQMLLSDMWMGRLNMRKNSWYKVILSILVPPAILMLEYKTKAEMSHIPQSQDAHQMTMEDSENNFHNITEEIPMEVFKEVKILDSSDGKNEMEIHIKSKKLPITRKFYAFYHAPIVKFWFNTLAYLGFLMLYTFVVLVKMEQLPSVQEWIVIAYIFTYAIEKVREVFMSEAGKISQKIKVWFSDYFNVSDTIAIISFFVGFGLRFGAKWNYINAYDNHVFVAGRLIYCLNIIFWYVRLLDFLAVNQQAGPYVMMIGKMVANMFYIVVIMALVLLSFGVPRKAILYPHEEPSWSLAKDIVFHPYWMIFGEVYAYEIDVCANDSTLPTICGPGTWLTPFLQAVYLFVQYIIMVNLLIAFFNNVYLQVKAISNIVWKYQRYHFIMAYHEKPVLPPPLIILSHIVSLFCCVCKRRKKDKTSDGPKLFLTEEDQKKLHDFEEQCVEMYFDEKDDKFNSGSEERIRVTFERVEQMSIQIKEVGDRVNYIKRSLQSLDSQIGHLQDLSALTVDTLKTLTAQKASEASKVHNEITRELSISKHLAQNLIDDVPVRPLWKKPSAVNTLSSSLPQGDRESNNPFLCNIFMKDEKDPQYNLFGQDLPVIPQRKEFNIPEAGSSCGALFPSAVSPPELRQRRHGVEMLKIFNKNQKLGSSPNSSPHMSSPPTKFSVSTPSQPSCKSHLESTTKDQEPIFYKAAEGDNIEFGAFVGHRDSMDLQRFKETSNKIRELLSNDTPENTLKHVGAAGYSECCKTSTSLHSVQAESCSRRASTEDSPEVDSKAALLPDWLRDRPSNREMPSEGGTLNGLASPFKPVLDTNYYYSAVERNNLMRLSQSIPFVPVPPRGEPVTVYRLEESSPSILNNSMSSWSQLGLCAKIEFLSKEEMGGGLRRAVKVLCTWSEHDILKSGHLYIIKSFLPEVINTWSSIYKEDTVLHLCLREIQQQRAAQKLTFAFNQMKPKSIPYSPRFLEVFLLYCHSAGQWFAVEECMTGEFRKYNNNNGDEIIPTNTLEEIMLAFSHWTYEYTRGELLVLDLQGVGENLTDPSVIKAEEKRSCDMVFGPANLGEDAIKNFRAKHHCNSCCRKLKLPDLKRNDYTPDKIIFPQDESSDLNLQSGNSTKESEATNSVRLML
Excerpt: The TRPM7 channel provides a pathway for mono- and divalent cations into the cell, and is unique in that it contains a functional C-terminal α-kinase domain. […] The induction of chemical anoxia in host cells such as recombinant HEK293 cells can be used to activate TRPM7. This activation is detectable with the use measurements of cellular calcium accumulation. This is achievable with the use of a fluorescent calcium indicator. Alternatively, this activation can also be measured using radiolabelled Ca2+ (^45Ca^2+) as described previously by Sattler et al. (Sattler et al., 1998) and Aarts et al. (Aarts et al., 2003).
Hoechst 33342 was purchased as a 10 mg/mL solution in water (Molecular Probes Inc., Eugene, Oreg.). Propidium iodide (PI) was purchased as a powder and prepared by dissolving in PBS at 1 mg/mL. PI solutions were stored at 4° C. until use. Hoechst and PI were added directly to cell culture to 5 μg/mL and 10 μg/mL respectively. Cells were incubated at room temperature or at 37° C. for 10 minutes to allow for adequate uptake, and fluorescence observed using a NIKON Eclipse TE2000 inverted microscope and TE-FM Epi-Fluorescence attachment (Nikon Canada).
Untransfected cells or cells transfected with the TRPM7/pTracer or ΔPDZ/pTracer construct were plated onto 24-well plates, 24-hours post-transfection. Untransfected cells were plated at 0.75×10^6 cells/well and transfected cells at 1×10^6 cells/well. The plates were coated with poly-D-lysine to strengthen cell adhesion and to minimize cell loss during washes. Cells were loaded by incubation with 5 μM fluo-3 AM and 0.02% pluronic in HBSS at 37° C. for 30 minutes. Following loading, cells were washed with an aglycaemic HBSS containing, in mM: 20 N-methyl-D-glucamine (NMDG), 121 NaCl, 5 KCl, 10 HEPES acid, 10 HEPES-Na salt, 3 NaHCO3, 1 Na-pyruvate, and 1.8 CaCl2, pH adjusted to 7.4 with HCl. Calcium uptake, as assessed by fluo-3 fluorescence, was measured in response to 0, 5, 10, 15, 20, or 25 mM sodium cyanide (NaCN; Mallinckrodt Baker Inc., Phillipsburg, N.J.) dissolved in aglycaemic HBSS. A 250 mM NaCN stock was prepared in water and stored at room temperature for up to 2 weeks. Measurements of fluo-3 fluorescence were taken over a 2 hour period at 10 minutes intervals at room temperature (22-25° C.). Calcium uptake assays were performed 48 hours post-transfection.
Cell death, as assessed by PI uptake, was examined at the end of the 2 hour calcium uptake assay. Cells were stained with 10 μg/mL PI and PI fluorescence measured using the Fluoroskan microplate reader (λ excitation=590 nm, λ emission=630 nm) and accompanying Ascent software (Thermo Electron Corp.). To obtain a reading of maximal fluorescence (Fmax), 0.5% Triton X-100 was added to each well and allowed to incubate for 20 minutes. Cell death assays were performed 48 hours post-transfection.
Data was entered into Excel (Microsoft, Seattle, Wash.) or SigmaPlot (SPSS Inc., Chicago, Ill.) for analysis. Pooled data are presented as the mean of at least 3 separate experiments±sem. Calcium uptake is expressed as a fraction of baseline uptake: ΔFt=(Ft−Fo)/Fo where Ft is the fluorescence at time t, and Fo is the fluorescence at baseline. Cell death is expressed as a percentage of total cell death: cell death (%)=Ft/Fmax×100 where Ft is the fluorescence at time t and Fmax is the maximal fluorescence obtained by permeabilization with Triton X-100. Concentration-response curves were fit by nonlinear regression with a 4 parameter logistic curve represented by the following equation: y=min+{(max−min)/[1+(x/EC50)n]} where y is the response at concentration x, min is the minimal response, max is the maximal response, EC50 is the concentration required for half-maximal response, and n is the Hill slope. Statistical analysis of data was carried out with a two-tailed Student's t test, or a one-way analysis of variance (ANOVA) followed by post hoc pairwise multiple comparisons testing using the Holm-Sidak method, where appropriate. […]

TRPM7 ion channel = biological target: T2, TRPM7 ion channel (Mus musculus, UniProt Q923J1); assay: Whole-cell patch clamp of TRPM7 currents in HEK293 cells; type: cell-based; settings: value shown = concentration at which the compound significantly inhibits the ion channel
T2 construct: expressed in transfected cells; host or cells: TRPM7-tet-on HEK293 cells
T2 sequence (Q923J1 whole entry): as above
Protocol: To further understand the structure function relationships between the TRPM7 inhibitors identified in the TRPM7-dependent HEK death assay, the activity of a subset of these inhibitors described herein were tested for their ability to inhibit TRPM7 currents in cell systems. Whole-cell patch clamp recordings were used essentially as described to test the TRPM7 inhibitors in HEK293 cells, H9c2 cardiomyocytes and cultured neurons. […] Those that provide >10% inhibition of TRPM7 channel activity in the HEK293 cell system were labeled with the concentration tested (generally 5 uM). Thus, the compounds in this table marked with such a value are able to block the activity gof the TRPM7 ion channel. FIGS. 2A-C provide an example of this for the TRPM7 inhibitor 399 (Structure 9). […] Numbers in brackets indicate the number of independent tests, and the bars represent the SEM.
Whole-cell currents were recorded using an Axopatch 1D or MultiClamp 700B amplifier and were digitized at 10 kHz and low-pass filtered at 2 kHz, at room temperature. pClamp10 software was used for data acquisition and analysis. Patch electrodes were pulled from Borosilicate glass and fire polished to a resistance of 2-4 MΩ. All drugs were administrated directly to cell bodies under recording through the fast exchange perfusion system.
The intracellular solution (ICS) contains (mM) 145 Cs-methanesulfonate, 8 NaCl, l MgCl2, 4.1 CaCl2, 10 EGTA, and 10 HEPES, 5 ATP, pH at 7.4, with 300-305 mOsm. The extracellular solution (ECS) contains (mM) 140 NaCl, 5 KCl, 2 CaCl2, 20 HEPES, and 10 glucose, pH at 7.4 and with 315-320 mOsm.
Voltage stimuli lasting 250 ms were delivered at 5-s intervals with voltage ramps ranging from −100 to +100 mV. The current values at −80 mV and +80 mV on I-V curve represent the measures of inward and outward current respectively.
(§1) Table X and FIGS. 7-51 show screening data for several additional compounds that are variants of M5, M6 or M21. The synthesis of compounds of Table X and FIGS. 7-51 is shown in Appendices A-C. The compounds shown in FIGS. 7-51 can be related to the appropriate row of Table X by the compound number shown in the figures and in the first column of Table X. The compounds in Table X other than M5, M6 and M21 themselves, are believed to be novel. The Table provides a number identifying the compound, its structurer, molecular weight and its cluster (i.e., whether the compound resembles M5, M6 or M21). The three columns relations to PI uptake describe the results of screening the compounds in the type of assay from Example 1. […] The last two columns show an effect on proliferation of Weri retinoblastoma or HeLa cervical cancer cells. Inhibition of proliferation is a measure of anti-neoplastic activity. […] If no data is shown, no test was performed.

TRPM7 [2] = biological target: TRPM7 (Homo sapiens, UniProt Q96QT4); settings: Nadler et al., Jiang et al.; read-out: IC50 for inhibition of TRPM7; cited from earlier work
Chain of TRPM7 (Homo sapiens, UniProt Q96QT4) (Q96QT4 whole entry, species assumed): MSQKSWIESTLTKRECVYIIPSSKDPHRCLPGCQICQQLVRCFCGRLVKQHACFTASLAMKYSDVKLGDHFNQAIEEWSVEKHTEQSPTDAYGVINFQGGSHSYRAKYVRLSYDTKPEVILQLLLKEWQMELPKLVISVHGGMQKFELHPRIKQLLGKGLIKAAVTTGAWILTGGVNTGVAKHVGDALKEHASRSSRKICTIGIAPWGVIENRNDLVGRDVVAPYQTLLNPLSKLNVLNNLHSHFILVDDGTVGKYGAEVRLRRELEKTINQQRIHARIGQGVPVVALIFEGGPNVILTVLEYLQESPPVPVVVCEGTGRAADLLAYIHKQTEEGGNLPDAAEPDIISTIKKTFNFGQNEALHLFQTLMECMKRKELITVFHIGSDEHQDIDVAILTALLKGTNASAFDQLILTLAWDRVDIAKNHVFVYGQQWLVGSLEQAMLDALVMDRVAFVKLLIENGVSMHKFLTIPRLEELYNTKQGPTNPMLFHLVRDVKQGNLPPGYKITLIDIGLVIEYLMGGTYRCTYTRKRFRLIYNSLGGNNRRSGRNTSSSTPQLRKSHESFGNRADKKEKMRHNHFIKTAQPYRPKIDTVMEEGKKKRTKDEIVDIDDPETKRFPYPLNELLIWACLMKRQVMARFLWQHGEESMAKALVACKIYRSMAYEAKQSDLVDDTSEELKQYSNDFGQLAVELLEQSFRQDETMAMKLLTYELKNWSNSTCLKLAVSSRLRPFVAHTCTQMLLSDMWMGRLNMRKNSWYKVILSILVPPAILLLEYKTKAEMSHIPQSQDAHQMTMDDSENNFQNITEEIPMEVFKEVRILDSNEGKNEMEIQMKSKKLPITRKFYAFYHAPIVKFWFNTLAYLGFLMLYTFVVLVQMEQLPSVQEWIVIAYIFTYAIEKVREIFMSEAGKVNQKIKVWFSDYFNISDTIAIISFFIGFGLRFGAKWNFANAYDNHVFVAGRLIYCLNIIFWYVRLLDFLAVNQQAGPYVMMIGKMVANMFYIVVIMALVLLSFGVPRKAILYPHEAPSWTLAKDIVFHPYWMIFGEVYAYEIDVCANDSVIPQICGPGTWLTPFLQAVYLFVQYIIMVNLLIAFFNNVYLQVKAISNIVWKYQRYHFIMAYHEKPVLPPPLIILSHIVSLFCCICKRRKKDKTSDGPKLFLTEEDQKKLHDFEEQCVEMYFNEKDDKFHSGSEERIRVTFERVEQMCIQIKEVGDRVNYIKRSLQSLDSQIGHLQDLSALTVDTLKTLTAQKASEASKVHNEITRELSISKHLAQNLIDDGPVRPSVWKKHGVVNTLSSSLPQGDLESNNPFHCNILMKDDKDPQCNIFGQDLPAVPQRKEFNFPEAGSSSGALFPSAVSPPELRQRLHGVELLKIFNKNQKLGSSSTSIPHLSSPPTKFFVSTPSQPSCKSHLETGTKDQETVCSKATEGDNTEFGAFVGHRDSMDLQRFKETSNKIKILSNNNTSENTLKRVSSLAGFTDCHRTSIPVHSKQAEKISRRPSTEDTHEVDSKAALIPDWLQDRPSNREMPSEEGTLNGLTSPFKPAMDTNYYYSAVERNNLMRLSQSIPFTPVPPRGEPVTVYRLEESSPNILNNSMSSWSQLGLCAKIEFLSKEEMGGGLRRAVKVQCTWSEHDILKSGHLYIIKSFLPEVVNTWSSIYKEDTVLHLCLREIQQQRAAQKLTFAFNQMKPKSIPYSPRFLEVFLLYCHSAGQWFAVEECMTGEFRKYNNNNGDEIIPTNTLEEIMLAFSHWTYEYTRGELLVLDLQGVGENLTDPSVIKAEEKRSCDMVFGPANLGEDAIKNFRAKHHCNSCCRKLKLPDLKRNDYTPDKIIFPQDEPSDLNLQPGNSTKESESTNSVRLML

cancer cell lines = assay: Cell proliferation studies, cancer cell lines in general; type: cell-based; settings: summary statement
Protocol: (§2) Cells were grown to 70% confluency, trypsinized, counted, and seeded in 96-well flat-bottom plates at a final concentration of 2.5×10^3-5.0×10^3 cells/well in growth media containing 5% FBS (Day 0). Other well sizes and cell densities were used successfully as well. Cells were allowed to incubate in growth media for 24 hours to allow for maximum adhesion. Treatment with the test agent began on Day 1 and continued for 72 hours either with or without retreatment. At the 72 hour time point, viable cell numbers are quantified by the CellTiter-Glo® cell viability assay as described above, or using standard MTT, SRB or BrDU assays. Experiments were repeated at least twice with the same concentrations to determine growth inhibitory activity. […] In an alternative format, this assay was used to screen potential TRPM7 inhibitory compounds at a fixed concentration, usually 5 or 10 uM. Alternatively, lower or higher concentrations were used. […] Thus, for the compounds in Table 1, all are potential anti-cancer agents. Some, like 399 and 509, are more general and may be effective against a wide range of cancers. Others, like 2785, are more specific and may be effective against a subset of cancers.
(§3) Data Collection—For the cell proliferation studies, data from each experiment was collected and expressed as % Cell Growth using the following calculation: % Cell Growth=(ftest/fvehicle)×100 Where ftest is the luminescent signal of the tested sample, and fvehicle is the luminescence of the vehicle in which the drug is dissolved (or appropriate measure for the other viability/proliferation measures). Dose response graphs and IC50 values were generated using standard software using the following variable slope equation: […]

[3] = test system: neurons, hepatocytes, cardiomyocytes, retina; assay: Survival after anoxia in cells and tissues; type: cell-based; settings: summary statement
Weri cells = assay: Cell proliferation assay, Weri retinoblastoma cells; type: cell-based
Protocol: as §2, §3, §1

[4] = Table X, the lower the number, the more potent in protecting against cell death
[5] = Table X, the lower the number, the more potent
[6] = Table Y, commercially available compounds

| Structure (SMILES) | Normalized ratio of PI uptake (5 μM) (TRPM7 [1]; [4]) | Normalized ratio of PI uptake (10 μM) (TRPM7 [1]; [5]) | IC50 (TRPM7 [1]; Table X) | TRPM7 current (TRPM7 ion channel) | also measured |
| --- | --- | --- | --- | --- | --- |
| COc1cccc2c1CCNC2c1sc2ccccc2c1Cl (stereo not drawn) [Compound 121] | 0.053 | 0.036 | 1.4 µM | 5 μM (Those that provide >10% inhibition of TRPM7 channel activity in the HEK293 cell system were labeled with the concentration tested (generally 5 uM)) |  |
| COc1cc2c(cc1OC)C(c1sc3cc(OC)c(OC)cc3c1Cl)=NCC2 [Compound 120] | 0.079 | 0.066 | 2.55 µM | 5 μM (Those that provide >10% inhibition of TRPM7 channel activity in the HEK293 cell system were labeled with the concentration tested (generally 5 uM)) |  |
| [Mg+2] [Mg^2+, magnesium] |  |  |  |  | IC50 (TRPM7 [2]): ~600000 nM |
| Cc1ccc2c(c1)CCCN2C(=O)c1sc2ccccc2c1Cl [Compound M5] |  |  |  |  | inhibition of proliferation of cancer cell lines (cancer cell lines): effective in inhibiting proliferation of various cancer cell lines; survival after anoxia [3]: effective in increasing survival after anoxia in neurons, hepatocytes, cardiomyoctes, and retina |
| COc1ccc2cc(C(=O)N(C)Cc3ccccc3N3CCCC3)[nH]c2c1 [T6899266 #9, reference compound] |  |  |  |  | Normalized ratio of PI uptake (5 μM) (TRPM7 [1]; [6]): 0.029; Normalized ratio of PI uptake (10 μM) (TRPM7 [1]; [6]): 0; IC50 (TRPM7 [1]; [6]): 2.32 µM; inhibition at 5 µM (Weri cells): 18%; inhibition at 10 µM (Weri cells): 42% |
| Fc1cccc2c1CCNC2c1sc2ccccc2c1Cl (stereo not drawn) [Compound 123] | 0.356 | 0.128 | 4.18 µM | 5 μM (Those that provide >10% inhibition of TRPM7 channel activity in the HEK293 cell system were labeled with the concentration tested (generally 5 uM)) |  |
| Cc1c(Cc2ccc(Cl)c(Cl)c2)c(=O)oc2cc(O)cc(O)c12 [Compound 131] | 0.29 | 0.03 | 3.42 µM | 5 μM (Those that provide >10% inhibition of TRPM7 channel activity in the HEK293 cell system were labeled with the concentration tested (generally 5 uM)) |  |
| Cc1cccc2sc(C3=NCCc4c(F)cccc43)c(Cl)c12 [Compound 117] | 0.02 | 0.07 | 1.67 µM | 5 μM (Those that provide >10% inhibition of TRPM7 channel activity in the HEK293 cell system were labeled with the concentration tested (generally 5 uM)) |  |
| O=C(NC1CCCc2ccccc21)c1sc2ccccc2c1Cl (stereo not drawn) [Compound 97] | 0 | 0.084 | 1.24 µM | 5 μM (Those that provide >10% inhibition of TRPM7 channel activity in the HEK293 cell system were labeled with the concentration tested (generally 5 uM)) |  |
| COc1cc2c(cc1OC)C(c1sc3ccccc3c1Cl)=NCC2 [Compound M6] |  |  |  |  | inhibition of proliferation of cancer cell lines (cancer cell lines): effective in inhibiting proliferation of various cancer cell lines; survival after anoxia [3]: effective in increasing survival after anoxia in neurons and cardiomyocytes |
| COc1ccccc1C(C)N(C)C(=O)c1cc2ccccc2s1 (stereo not drawn) [T6681713 #6, reference compound] |  |  |  |  | Normalized ratio of PI uptake (5 μM) (TRPM7 [1]; [6]): 0.328; Normalized ratio of PI uptake (10 μM) (TRPM7 [1]; [6]): 0.059; IC50 (TRPM7 [1]; [6]): 5.48 µM; inhibition at 5 µM (Weri cells): 9%; inhibition at 10 µM (Weri cells): 33% |
